Data from the supplement of paper PMC10307832.

Assays:
Test in all cases: relative viability (nuclei count vs DMSO), 5 days (fraction); higher = more cells survive
NCI-H1915 = tested on: NCI-H1915
Procedure, shortened: (§1)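 For relative viability, nuclei counts in treated wells were divided by those in vehicle wells. Lung cancer cell lines had been pin-tool dosed in 1536-well plates the day after seeding and cultured for 5 days, then fixed and stained in one step (final 0.05% Triton X-100, 1% formaldehyde, 1 ug/ml Hoechst) and imaged at 4×. Doses were one drug alone or a fixed anchor-drug dose plus five library-drug doses (not always all listed) in √10 steps, and values are duplicate-plate medians.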

NCI-H1944 = tested on: NCI-H1944
Procedure, shortened: as §1

NCI-H2023 = tested on: NCI-H2023
Procedure, shortened: as §1

NCI-H2087 = tested on: NCI-H2087
Procedure, shortened: as §1

NCI-H441 = tested on: NCI-H441
Procedure, shortened: as §1

NCI-H460 = tested on: NCI-H460
Procedure, shortened: as §1

NCI-H520 = tested on: NCI-H520
Procedure, shortened: as §1

NCI-H596 = tested on: NCI-H596
Procedure, shortened: as §1

NCI-H650 = tested on: NCI-H650
Procedure, shortened: as §1

NCI-H661 = tested on: NCI-H661
Procedure, shortened: as §1

NCI-H727 = tested on: NCI-H727
Procedure, shortened: as §1

PC-3 [JPC-3] = tested on: PC-3 [JPC-3]
Procedure, shortened: as §1

CC1(C)CCC(c2ccc(Cl)cc2)=C(CN2CCN(c3ccc(C(=O)NS(=O)(=O)c4ccc(N[C@H](CCN5CCOCC5)CSc5ccccc5)c(S(=O)(=O)C(F)(F)F)c4)cc3)CC2)C1 [Navitoclax] + Cc1cc(Nc2cc(N3CCN(C)CC3)nc(Sc3ccc(NC(=O)C4CC4)cc3)n2)n[nH]1 [Tozasertib] (partner 0.1 µM)
relative viability (NCI-H1915; first compound 0.1581 µM): 0.414
relative viability (NCI-H1915; first compound 0.5 µM): 0.418
relative viability (NCI-H1944; first compound 0.005 µM): 0.254
relative viability (NCI-H1944; first compound 0.01581 µM): 0.246
relative viability (NCI-H1944; first compound 0.05 µM): 0.241
relative viability (NCI-H1944; first compound 0.1581 µM): 0.259
relative viability (NCI-H1944; first compound 0.5 µM): 0.206
relative viability (NCI-H2023; first compound 0.005 µM): 0.384
relative viability (NCI-H2023; first compound 0.01581 µM): 0.32
relative viability (NCI-H2023; first compound 0.05 µM): 0.357
relative viability (NCI-H2023; first compound 0.1581 µM): 0.36
relative viability (NCI-H2023; first compound 0.5 µM): 0.244
relative viability (NCI-H2087; first compound 0.005 µM): 0.245
relative viability (NCI-H2087; first compound 0.01581 µM): 0.236
relative viability (NCI-H2087; first compound 0.1581 µM): 0.197
relative viability (NCI-H2087; first compound 0.5 µM): 0.294
relative viability (NCI-H441; first compound 0.005 µM): 0.648
relative viability (NCI-H441; first compound 0.01581 µM): 0.846
relative viability (NCI-H441; first compound 0.05 µM): 0.719
relative viability (NCI-H441; first compound 0.1581 µM): 0.524
relative viability (NCI-H441; first compound 0.5 µM): 0.676
relative viability (NCI-H460; first compound 0.005 µM): 0.392
relative viability (NCI-H460; first compound 0.01581 µM): 0.327
relative viability (NCI-H460; first compound 0.05 µM): 0.37
relative viability (NCI-H460; first compound 0.1581 µM): 0.382
relative viability (NCI-H460; first compound 0.5 µM): 0.397
relative viability (NCI-H520; first compound 0.005 µM): 0.511
relative viability (NCI-H520; first compound 0.01581 µM): 0.408
relative viability (NCI-H520; first compound 0.05 µM): 0.419
relative viability (NCI-H520; first compound 0.1581 µM): 0.376
relative viability (NCI-H520; first compound 0.5 µM): 0.392
relative viability (NCI-H596; first compound 0.005 µM): 0.776
relative viability (NCI-H596; first compound 0.01581 µM): 0.853
relative viability (NCI-H596; first compound 0.1581 µM): 0.885
relative viability (NCI-H596; first compound 0.5 µM): 1.03
relative viability (NCI-H650; first compound 0.005 µM): 0.711
relative viability (NCI-H650; first compound 0.01581 µM): 0.818
relative viability (NCI-H650; first compound 0.05 µM): 0.781
relative viability (NCI-H650; first compound 0.1581 µM): 0.765
relative viability (NCI-H650; first compound 0.5 µM): 0.718
relative viability (NCI-H661; first compound 0.005 µM): 0.355
relative viability (NCI-H661; first compound 0.01581 µM): 0.344
relative viability (NCI-H661; first compound 0.05 µM): 0.341
relative viability (NCI-H661; first compound 0.1581 µM): 0.363
relative viability (NCI-H661; first compound 0.5 µM): 0.358
relative viability (NCI-H727; first compound 0.005 µM): 0.621
relative viability (NCI-H727; first compound 0.01581 µM): 0.692
relative viability (NCI-H727; first compound 0.1581 µM): 0.676
relative viability (NCI-H727; first compound 0.5 µM): 0.646
relative viability (PC-3 [JPC-3]; first compound 0.005 µM): 0.846
relative viability (PC-3 [JPC-3]; first compound 0.01581 µM): 0.892
relative viability (PC-3 [JPC-3]; first compound 0.05 µM): 0.935
relative viability (PC-3 [JPC-3]; first compound 0.1581 µM): 0.898
relative viability (PC-3 [JPC-3]; first compound 0.5 µM): 0.876
